Measurements: US8946224B2, “Substituted [1,2,4]triazolo[4,3-A]pyrazines for medicaments and pharmaceutical compositions” (Redx Pharma Limited, priority 2010, dated 2015)
Like-named read-outs stand apart in the source and are kept apart here. One block for each molecule: values may come before it.

Key:
[1] = test system: HepG2 cells; assay: HepG2 cytotoxicity, MTT, 72 hours (Examples 93-95); assay type: cell-based; conditions: for MEC (minimum effective concentration that significantly crosses vehicle threshold) / AC50: Cell Loss; for AC50: Homo sapiens, HepG2, read-out: AC50 (concentration at which 50% maximum effect is observed)
Procedure: Methodology for Examples 93-95
A number of analogues were tested for their ability to kill cancer cells.
HepG2 cells were plated on 96-well tissue culture treated polystyrene plates at 0.5×10^4 cells in 100 μL per well. After 24 hr the cells are dosed with test compound at a range of concentrations and incubated for 72 hours. One hour prior to the end of the incubation period, the cells are loaded with MU [yellow; 3-(4,5-dimethyl-2-thiazolyl)-2,5-diphenyl-2H-tetrazolium bromide], the plates are dried and re-solubilised using DMSO. The plates are then scanned using SpectraFluor Plus (TECAN).
Cytotoxicity was assessed using MU. The assay provides a measurement of mitochondrial dehydrogenase activity and cell loss.
A decrease can indicate a loss of cells indicating toxicity due to necrosis, apoptosis or a reduction in cellular proliferation.
A decrease can also indicate an effect on mitochondrial function as mitochondrial dehydrogenasesreduce the MTT [yellow; 3-(4,5-dimethyl-2-thiazolyl)-2,5-diphenyl-2H-tetrazolium bromide] to formazan. The formazan is detected in this assay.
The cells were dosed at concentrations of 0.04, 0.1, 0.4, 1, 4, 10, 40 and 100 μM. The assay was repeated three times at each concentration.
AC50=The concentration at which 50% maximum effect is observed for each cell health parameter.
The cells were dosed at concentrations of 0.02, 0.05, 0.2, 0.5, 2, 5, 20 and 50 μM. The assay was repeated three times at each concentration.
The cells were dosed at concentrations of 0.04, 0.1, 0.4, 1, 4, 10, 40 and 100 μM for bexarotene and the compound of formula 102 when Z is CH═NOH (compound 13a). The cells were dosed at concentrations of 0.02, 0.05, 0.2, 0.5, 2, 5, 20 and 50 μM for the compound of formula 102 when Z is CH═NOMe (compound 13b). The assay was repeated three times at each concentration.

[2] = test system: PathHunter NHRPro cell lines; assay: PathHunter NHRPro cell assay, antagonist format (Examples 90-92); assay type: cell-based; conditions: for Emax: read-out: Max Response; for IC50: read-out: RC50 (IC50)
Procedure: Methodology for Examples 90-92 Cell Handling
PathHunter NHRPro cell lines were expanded from freezer stocks in T25 flasks according to standard procedures and maintained in selective growth media prior to assay.
Once it was established that the cells were healthy and growing normally, cells were passaged from flasks using cell dissociation reagent and seeded into white walled clear bottom 384-well microplates for compound profiling.
For profiling, cells were seeded at a density of 10000 cells per well in a total volume of 20 μL and were allowed to adhere and recover overnight prior to compound addition. Media contained charcoal-dextran filtered serum to reduce the level of hormones present.
Agonist dose curves were performed the morning of profiling to determine the EC80 value for the following antagonist testing with compounds. 5 μL of 5× agonist was added to each well with an equal concentration of vehicle present.
EC80 agonist concentration was determined directly from agonist dose curve.
For antagonist determination, cells were pre-incubated with antagonist followed by agonist challenge at the EC80 concentration.
5 μL of 5× compound added to cells and incubated at 37° C. for 30 minutes.
5 μL of 6× EC80 agonist added to cells and incubated at 37° C. for 90 minutes (180 minutes for EDG2 and EDG8).
After appropriate compound incubation, assay signal was generated through a single addition of 15 μL (50% v/v) of PathHunter Detection reagent cocktail for agonist and antagonist assays respectively followed by one hour incubation at room temperature.
Microplates were read following signal generation with a PerkinElmer Envision™ instrument for chemiluminescent signal detection.
Dose curves in the presence and absence of compound were plotted using GraphPad Prism or Activity Base.

[3] = biological target: T1, recombinant human MAO-B (Homo sapiens, UniProt P27338); assay: MAO-B inhibition, kynuramine substrate, LC-MS/MS of 4-hydroxyquinoline (Example 99); assay type: biochemical; conditions: for remaining activity at 0.001 µM: 0.001 μM test compound; for remaining activity at 0.001 µM / remaining activity at 0.01 µM / remaining activity at 0.04 µM / remaining activity at 0.1 µM / remaining activity at 0.4 µM / remaining activity at 1 µM / remaining activity at 10 µM: kynuramine 25 μM, read-out: Mean % Activity Remaining (n = 2); for remaining activity at 0.01 µM: 0.010 μM test compound; for remaining activity at 0.04 µM: 0.04 μM test compound; for remaining activity at 0.1 µM: 0.1 μM test compound; for remaining activity at 0.4 µM: 0.4 μM test compound; for remaining activity at 1 µM: 1 μM test compound; for remaining activity at 10 µM: 10 μM test compound; for IC50: MAO-B, substrate kynuramine 25 μM
T1 sequence (P27338 1-520): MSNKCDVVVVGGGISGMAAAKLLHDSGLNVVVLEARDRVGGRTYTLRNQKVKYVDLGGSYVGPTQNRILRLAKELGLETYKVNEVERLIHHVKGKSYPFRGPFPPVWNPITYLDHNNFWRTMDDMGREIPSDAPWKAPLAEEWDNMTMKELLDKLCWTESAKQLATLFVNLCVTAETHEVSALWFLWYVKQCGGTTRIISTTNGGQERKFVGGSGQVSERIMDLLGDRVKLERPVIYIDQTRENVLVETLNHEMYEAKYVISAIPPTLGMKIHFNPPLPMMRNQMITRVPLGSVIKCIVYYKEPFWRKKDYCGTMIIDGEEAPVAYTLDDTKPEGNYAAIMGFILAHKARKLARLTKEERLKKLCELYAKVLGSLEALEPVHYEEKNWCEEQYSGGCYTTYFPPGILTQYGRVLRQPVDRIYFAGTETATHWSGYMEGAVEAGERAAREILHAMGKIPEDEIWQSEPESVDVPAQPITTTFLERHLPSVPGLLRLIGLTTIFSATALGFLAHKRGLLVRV
Procedure: Eight test compound concentrations (0.001-10 μM; final DMSO concentration 0.5%) were incubated with recombinant human MAO-B (2 μg/mL) in the presence of the probe substrate kynuramine (25 μM) for 25 min at 37° C. Each test compound concentration was assessed in duplicate. […] The reactions were terminated by addition of methanol containing internal standard for analytical quantification. The quenched samples were incubated at 4° C. for 10 min and centrifuged at 4° C. for 10 min. The supernatant was removed and analysed by LC-MS/MS for the probe metabolite 4-hydroxyquinoline. Generic Cyprotex LC-MS/MS analytical conditions were used.
A decrease in the formation of the metabolite compared to vehicle control was used to calculate an IC50 value.

[4] = Example 95, dosed 0.04-100 μM (compound 13b 0.02-50 μM)

Compound: Cn1c(CCCC(=O)O)nc2cc(N(CCCl)CCCl)ccc21 [Bendamustine, bendamustine, reference compound]
- MEC (minimum effective concentration that significantly crosses vehicle threshold) ([1]; Example 93, dosed 0.04-100 μM): 40 µM
- AC50 ([1]; Example 93, dosed 0.04-100 μM): 92.3 µM

Compound: C=C(c1ccc(C(=O)O)cc1)c1cc2c(cc1C)C(C)(C)CCC2(C)C [Bexarotene, bexarotene, reference compound]
- MEC (minimum effective concentration that significantly crosses vehicle threshold) [1, 4]: 40 µM
- AC50 [1, 4]: 44.3 µM

Compound: CCOc1nc2cccc(C(=O)O)c2n1Cc1ccc(-c2ccccc2-c2nnn[nH]2)cc1 [Candesartan]
- Emax ([2]; AGTR1, Arrestin): 101%
- IC50 ([2]; AGTR1, Arrestin): 0.00987 µM

Compound: CCCCc1nc(Cl)c(C=NO)n1Cc1ccc(-c2ccccc2-c2nn[nH]n2)cc1 [Compound 4a, 1-((2′-(2H-Tetrazol-5-yl)-[1,1′-biphenyl]-4-yl)methyl)-2-butyl-4-chloro-1H-imidazole-5-carbaldehyde oxime]
- Emax ([2]; AGTR1, Arrestin): 96.7%
- IC50 ([2]; AGTR1, Arrestin): 0.109 µM

Compound: CCCCc1nc(Cl)c(C=NOC)n1Cc1ccc(-c2ccccc2-c2nn[nH]n2)cc1 [Compound 4b, 1-((2′-(2H-Tetrazol-5-yl)-[1′,1′-biphenyl]-4-yl)methyl)-2-butyl-4-chloro-1H-imidazole-5-carbaldehyde O-methyl oxime]
- Emax ([2]; AGTR1, Arrestin): 97.4%
- IC50 ([2]; AGTR1, Arrestin): 0.248 µM

Compound: Cn1c(CCCC=O)nc2cc(N(CCCl)CCCl)ccc21 [Compound 6a, 4-(5-(Bis(2-chloroethyl)amino)-1-methyl-1H-benzo[d]imidazol-2-yl)butanal]
- MEC (minimum effective concentration that significantly crosses vehicle threshold) ([1]; Example 93, dosed 0.04-100 μM): 4 µM
- Activity in HepG2 cell assay (in words) ([1]; Example 93, 0.04-100 μM, 72 hours): exhibited a higher activity than compound 6b
- AC50 ([1]; Example 93, dosed 0.04-100 μM): 5.83 µM

Compound: Cn1c(CCCC=NO)nc2cc(N(CCCl)CCCl)ccc21 [Compound 6b, 4-(5-(Bis(2-chloroethyl)amino)-1-methyl-1H-benzo[d]imidazol-2-yl)butanal oxime]
- MEC (minimum effective concentration that significantly crosses vehicle threshold) ([1]; Example 93, dosed 0.04-100 μM): 10 µM
- AC50 ([1]; Example 93, dosed 0.04-100 μM): 17.3 µM

Compound: CCOc1nc2cccc(C=NO)c2n1Cc1ccc(-c2ccccc2-c2nnn[nH]2)cc1 [Compound 10a, 1-((2′-(1H-Tetrazol-5-yl)-[1,1′-biphenyl]-4-yl)methyl)-2-ethoxy-1H-benzo[d]imidazole-7-carbaldehyde oxime]
- Emax ([2]; AGTR1, Arrestin): 101%
- IC50 ([2]; AGTR1, Arrestin): 0.0465 µM

Compound: CCOc1nc2cccc(C=NOC)c2n1Cc1ccc(-c2ccccc2-c2nnn[nH]2)cc1 [Compound 10b, 1-((2′-(1H-tetrazol-5-yl)-[1,1′-biphenyl]-4-yl)methyl)-2-ethoxy-1H-benzo[d]imidazole-7-carbaldehyde O-methyl oxime]
- Emax ([2]; AGTR1, Arrestin): 98.8%
- IC50 ([2]; AGTR1, Arrestin): 0.0488 µM

Compound: C=C(c1ccc(C=NO)cc1)c1cc2c(cc1C)C(C)(C)CCC2(C)C [Compound 13a, 4-(1-(3,5,5,8,8-Pentamethyl-5,6,7,8-tetrahydronaphthalen-2-yl)vinyl)benzaldehyde oxime]
- MEC (minimum effective concentration that significantly crosses vehicle threshold) [1, 4]: 40 µM
- AC50 [1, 4]: 15.8 µM

Compound: C=C(c1ccc(C=NOC)cc1)c1cc2c(cc1C)C(C)(C)CCC2(C)C [Compound 13b, 4-(1-(3,5,5,8,8-Pentamethyl-5,6,7,8-tetrahydronaphthalen-2-yl)vinyl)benzaldehyde O-methyl oxime]
- MEC (minimum effective concentration that significantly crosses vehicle threshold) [1, 4]: 50 µM
- AC50 [1, 4]: 45.6 µM

Compound: Cc1ccc(F)cc1C(=O)Nc1ccc(C(=O)N2Cc3cccn3Cc3ccccc32)c(Cl)c1 [Lixivaptan, lixivaptan, reference compound]
- Emax ([2]; AVPR2, Arrestin): 102%
- IC50 ([2]; AVPR2, Arrestin): 0.00128 µM

Compound: CCCCc1nc(Cl)c(CO)n1Cc1ccc(-c2ccccc2-c2nn[nH]n2)cc1 [Losartan]
- Emax ([2]; AGTR1, Arrestin): 98.6%
- IC50 ([2]; AGTR1, Arrestin): 0.00821 µM

Compound: C[C@H](NCc1ccc(OCc2cccc(F)c2)cc1)C(N)=O [Safinamide, safinamide, reference compound]
- remaining activity at 0.001 µM [3]: 101%
- remaining activity at 0.01 µM [3]: 95%
- remaining activity at 0.04 µM [3]: 79%
- remaining activity at 0.1 µM [3]: 62%
- remaining activity at 0.4 µM [3]: 31%
- remaining activity at 1 µM [3]: 13%
- remaining activity at 10 µM [3]: 2%

Compound: CCCCC(=O)N(Cc1ccc(-c2ccccc2-c2nnn[nH]2)cc1)[C@H](C(=O)O)C(C)C [Valsartan]
- Emax ([2]; AGTR1, Arrestin): 106%
- IC50 ([2]; AGTR1, Arrestin): 0.0017 µM

Second part, led by results:

- IC50 ([2]; AVPR2, Arrestin): 0.0038 µM
Compound: Cc1ccc(F)cc1C(=O)Nc1ccc(CN2Cc3cccn3Cc3ccccc32)c(Cl)c1 [Compound 15a, N-(4-((5H-Benzo[e]pyrrolo[1,2-a][1,4]diazepin-10(11H)-yl)methyl)-3-chlorophenyl)-5-fluoro-2-methylbenzamide]
- Emax ([2]; AVPR2, Arrestin): 108%

- IC50 ([2]; AVPR2, Arrestin): 2.37 µM
Compound: Cc1ccc(F)cc1CNc1ccc(C(=O)N2Cc3cccn3Cc3ccccc32)c(Cl)c1 [Compound 15b, (5H-Benzo[e]pyrrolo[1,2-a][1,4]diazepin-10(11H)-yl)(2-chloro-4-(5-fluoro-2-methylbenzylamino)phenyl)methanone]
- Emax ([2]; AVPR2, Arrestin): 79.4%

- remaining activity at 0.001 µM [3]: 90%
- remaining activity at 0.01 µM [3]: 84%
- remaining activity at 0.04 µM [3]: 73%
- remaining activity at 0.1 µM [3]: 65%
- remaining activity at 0.4 µM [3]: 50%
- remaining activity at 1 µM [3]: 26%
- remaining activity at 10 µM [3]: 4%
- IC50 [3]: 0.246 µM
Compound: C[C@@H](C=NO)NCc1ccc(OCc2cccc(F)c2)cc1 [Compound 31a, (S)-2-(4-(3-Fluorobenzyloxy)benzylamino)propanal oxime]

- remaining activity at 0.001 µM [3]: 90%
- remaining activity at 0.01 µM [3]: 75%
- remaining activity at 0.04 µM [3]: 57%
- remaining activity at 0.1 µM [3]: 34%
- remaining activity at 0.4 µM [3]: 15%
- remaining activity at 1 µM [3]: 6%
- remaining activity at 10 µM [3]: 1%
- IC50 [3]: 0.046 µM
Compound: CON=C[C@H](C)NCc1ccc(OCc2cccc(F)c2)cc1 [Compound 31b, (S)-2-(4-(3-Fluorobenzyloxy)benzylamino)propanal O-methyl oxime]
